In the case of `CCOC(=O)CCc1ccc(OCc2ccc(OCc3nc(-c4ccccc4)oc3C)cc2)cc1` [Example 44, ethyl 3-[4-[4-[(5-methyl-2-phenyl-4-oxazolyl)methoxy]benzyloxy]phenyl]propionate], the melting point lay in the range of 105 to 106 °C. The value for `COC(=O)Cc1ccccc1OCc1cc(OCCc2nc(-c3ccccc3)sc2C)no1` [Example 116, methyl 2-[2-[[3-[2-(5-methyl-2-phenyl-4-thiazolyl)ethoxy]-5-isoxazolyl]methoxy]phenyl]acetate] was 80 to 81 °C. The value for `Cc1oc(-c2ccccc2)nc1COc1cccc(COc2cncc(CC(=O)O)c2)c1` [Example 76, 2-[5-[3-[(5-methyl-2-phenyl-4-oxazolyl)methoxy]benzyloxy]-3-pyridyl]acetic acid] was 158 to 159 °C; that for `COC(=O)Cc1ccccc1OCc1ccc(OCCc2nc(-c3ccccc3)oc2C)nc1` [Example 118, methyl 2-[2-[[6-[2-(5-methyl-2-phenyl-4-oxazolyl)ethoxy]-3-pyridyl]methoxy]phenyl]acetate] was 78 to 79 °C. The value for `COc1ccc(COc2ccccc2CC(=O)O)cc1OCc1nc(-c2ccccc2)oc1C` [Example 49, 2-[2-[4-methoxy-3-[(5-methyl-2-phenyl-4-oxazolyl)methoxy]benzyloxy]phenyl]acetic acid] was 154 to 155 °C; that for `Cc1oc(-c2ccccc2)nc1COc1cncc(COc2ccccc2CC(=O)O)c1` [Example 43, 2-[2-[[5-[(5-methyl-2-phenyl-4-oxazolyl)methoxy]-3-pyridyl]methoxy]phenyl]acetic acid] was 207 to 208 °C; that for `Cc1oc(-c2ccccc2)nc1COc1ccc(COc2ncccc2CC(=O)[O-])cc1.[K+]` was 157 to 159 °C. As for `Cc1oc(-c2ccccc2)nc1COc1ccc(COc2ncccc2CC(=O)[O-])cc1.[Li+]`, the melting point fell in the range of 207 to 209 °C. For `Cc1oc(-c2ccccc2)nc1COc1ccc(COc2ccc(CCC(=O)O)cc2)cc1` [Example 45, 3-[4-[4-[(5-methyl-2-phenyl-4-oxazolyl)methoxy]benzyloxy]phenyl]propionic acid] the value was 177 to 178 °C; for `Cc1oc(-c2ccccc2)nc1COc1cccc(CSc2cccc(CC(=O)O)c2)c1` [Example 139, 2-[3-[3-[(5-methyl-2-phenyl-4-oxazolyl)methoxy]benzylthio]phenyl]acetic acid], 81 to 82 °C; for `Cc1oc(-c2ccccc2)nc1COc1ccc(COc2ccc(OCc3ccccc3)cc2CC(=O)O)cc1` [Example 27, 2-[5-benzyloxy-2-[4-[(5-methyl-2-phenyl-4-oxazolyl)methoxy]benzyloxy]phenyl]acetic acid], 140 to 141 °C.

With `CCOC(=O)CCc1c(OCc2ccc(OCc3nc(-c4ccccc4)oc3C)cc2)ccc2ccccc12` [Example 46, ethyl 3-[2-[4-[(5-methyl-2-phenyl-4-oxazolyl)methoxy]benzyloxy]-1-naphthyl]propionate], the melting point fell in the range of 86 to 87 °C.

In turn, `Cc1oc(-c2ccccc2)nc1COc1cccc(CSc2cccc(CCC(=O)O)c2)c1` [Example 140, 3-[3-[3-[(5-methyl-2-phenyl-4-oxazolyl)methoxy]benzylthio]phenyl]propionic acid] returned a melting point of 120 to 121 °C.

On to `CCCc1oc(-c2ccccc2)nc1COc1ccc(COc2cccc(CC(=O)O)c2)cc1` [Example 87, 2-[3-[4-[(2-phenyl-5-propyl-4-oxazolyl)methoxy]benzyloxy]phenyl]acetic acid], for which the melting point was in the range of 115 to 116 °C. The value for `CCOC(=O)CCc1ccc(OCc2ccc(OCc3nc(-c4ccccc4)oc3C)cc2)cc1OCC` [Example 65, ethyl 3-[2-ethoxy-4-[4-[(5-methyl-2-phenyl-4-oxazolyl)methoxy]benzyloxy]phenyl]propionate] was 64 to 65 °C.

As for `CC(Nc1nc(-c2ccccc2)cs1)c1ccc(COc2ccc(CC(=O)O)cc2)cc1` (stereo not drawn) [Example 128, 4-[4-[methyl(4-phenyl-2-thiazolyl)aminomethyl]benzyloxy]phenylacetic acid], the melting point is 116 to 118 °C. The value for `Cc1oc(-c2ccccc2)nc1CCOc1ccc(COc2ncccc2CC(=O)O)cc1` [Example 111, 2-[2-[4-[2-(5-methyl-2-phenyl-4-oxazolyl)ethoxy]benzyloxy]-3-pyridyl]acetic acid] was 134 to 135 °C.

In turn, `CCOC(=O)C=Cc1c(OCc2ccc(OCc3nc(-c4ccccc4)oc3C)cc2)ccc2ccccc12` [Example 54, ethyl 3-(2-(4-((5-methyl-2-phenyl-4-oxazolyl)methoxy)benzyloxy)-1-naphthyl)-2-propenoate] returned a melting point of 73 to 74 °C. For `CCOc1ccc(OCc2cccc(OCc3nc(-c4ccccc4)oc3C)c2)cc1CCC(=O)O` [Example 33, 3-[2-ethoxy-5-[3-[(5-methyl-2-phenyl-4-oxazolyl)methoxy]benzyloxy]phenyl]propionic acid] the value was 136 to 137 °C; for `COC(=O)Cc1ccccc1OCc1ccc(N(Cc2nc(-c3ccccc3)oc2C)C(=O)OC(C)(C)C)cc1` [Example 59, methyl 2-[2-[4-[(t-butoxycarbonyl)[(5-methyl-2-phenyl-4-oxazolyl)methyl]amino]benzyloxy]phenyl]acetate], 85 to 86 °C; for `Cc1oc(-c2ccccc2)nc1COc1ccccc1COc1ccc(CC(=O)O)cc1` [Example 69, 2-[4-[2-[(5-methyl-2-phenyl-4-oxazolyl)methoxy]benzyloxy]phenyl]acetic acid], 173 to 174 °C.

For `Cc1oc(-c2ccccc2)nc1COc1cccc(CSc2ccc(CC(=O)O)cc2Cl)c1` [Example 142, 2-[3-chloro-4-[3-[(5-methyl-2-phenyl-4-oxazolyl)methoxy]benzylthio]phenyl]acetic acid], the melting point lay in the range of 150 to 151 °C. In the case of `COC(=O)Cc1cc(-c2ccccc2)ccc1OCc1ccc(OCc2nc(-c3ccccc3)oc2C)cc1` [Example 21, methyl 2-[2-[4-[(5-methyl-2-phenyl-4-oxazolyl)methoxy]benzyloxy]-5-phenylphenyl]acetate], the melting point lay in the range of 111 to 112 °C.

The compound `Cc1oc(-c2ccccc2)nc1/C=C/c1ccc(COc2ccccc2CC(=O)O)cc1` [Example 95, 2-[2-[4-[(E)-2-(5-methyl-2-phenyl-4-oxazolyl)ethenyl]benzyloxy]phenyl]acetic acid] gave a melting point of 189 to 190 °C.

In turn, `CCOc1ccc(OCc2ccc(OCc3nc(-c4ccccc4)oc3C)cc2)cc1CC(=O)O` [Example 5, 2-[2-ethoxy-5-[4-[(5-methyl-2-phenyl-4-oxazolyl)methoxy]benzyloxy]phenyl]acetic acid] gave a melting point of 122 to 123 °C.

On to `CCOc1ccc(OCc2ccc(OCc3nc(-c4ccccc4)oc3C)cc2)cc1CC(=O)OC` [Example 4, methyl-2-[2-ethoxy-5-[4-[(5-methyl-2-phenyl-4-oxazolyl)methoxy]benzyloxy]phenyl]acetate], for which the melting point is 82 to 83 °C. For `Cc1oc(-c2ccccc2)nc1COc1ccc(COc2ccccc2CCC(=O)O)cc1` [Example 13, 3-[2-[4-[(5-methyl-2-phenyl-4-oxazolyl)methoxy]benzyloxy]phenyl]propionic acid] the value was 98 to 99 °C.

As usually defined, the melting point is the temperature, or range, at which the solid turns liquid.

Values taken from patent US7238716B2, “Alkanoic acid derivatives process for their production and use thereof” (Takeda Pharmaceuticals Company Limited, priority 2000, dated 2007).
